Data on 1 compound can be found in patent US10479789B2, “Pyrido[1,2-A]pyrimidone analog, crystal form thereof, intermediate thereof and preparation method therefor” (Chia Tai Tianqing Pharmaceutical Group Co., Ltd., priority 2015, dated 2019).

What is called IC50 is the concentration at which inhibition is half-maximal.

The test system of experiment [1] is MCF-7 cells. The experiment can be described thus: In vitro test of cell activity, insulin-stimulated MCF-7 cells, ELISA-One. In kind it is cell-based. The settings on record: Homo sapiens, MCF7, 2 hours compound, insulin 30 minutes. Here is the method: 1) MCF-7 cells were inoculated at the density of 2.5×10^4 cells/well into 96-well plates (the culture medium used should be a complete culture medium containing 10% FBS).
2) On the next day, the medium in each well was drawn out.
3) Insulin was dissolved in a culture medium without serum, added to the cultured cells and incubated for 30 minutes, wherein the final concentration of insulin was 10 mg/mL.
4) A lysis solution was prepared according to the following method during the waiting period for the reaction: • a) Enhancer solution was removed from the refrigerator to melt in advance. • b) Enhancer solution was diluted 10-fold with the 5× Lysis Buffer to give a concentrated lysis solution. • c) The concentrated lysis solution was diluted 5-fold with double distilled water to give the lysis solution.
5) The medium in each well was completely removed and each well was quickly rinsed with PBS once.
6) 150 μL of the freshly prepared lysis solution was added to each well and shaken at room temperature for 10 min.
7) After confirming that all cells were detached, the lysis solution together with cell debris was transferred into a 1.5 mL tube. […]
9) The number of strips of ELISA-one micro-well plate that is required was calculated. […]
15) The corresponding ELISA-One filter group was assembled and used to read the fluorescence signal intensity.

The target of experiment [2] is PI3Kδ (Homo sapiens, UniProt O00329). Nature of the experiment: ADP-Glo Assay II, PI3Kδ. In kind it is biochemical. The settings on record: read-out: IC50 for inhibition of PI3Kδ activity. As to the method: 1) The compound was diluted using Echo from Labcyte company, 50 nL of the compound was transferred into an assay plate, and centrifuged at a speed of 1000 rpm for 10 sec.
Chain of PI3Kδ (O00329 whole entry): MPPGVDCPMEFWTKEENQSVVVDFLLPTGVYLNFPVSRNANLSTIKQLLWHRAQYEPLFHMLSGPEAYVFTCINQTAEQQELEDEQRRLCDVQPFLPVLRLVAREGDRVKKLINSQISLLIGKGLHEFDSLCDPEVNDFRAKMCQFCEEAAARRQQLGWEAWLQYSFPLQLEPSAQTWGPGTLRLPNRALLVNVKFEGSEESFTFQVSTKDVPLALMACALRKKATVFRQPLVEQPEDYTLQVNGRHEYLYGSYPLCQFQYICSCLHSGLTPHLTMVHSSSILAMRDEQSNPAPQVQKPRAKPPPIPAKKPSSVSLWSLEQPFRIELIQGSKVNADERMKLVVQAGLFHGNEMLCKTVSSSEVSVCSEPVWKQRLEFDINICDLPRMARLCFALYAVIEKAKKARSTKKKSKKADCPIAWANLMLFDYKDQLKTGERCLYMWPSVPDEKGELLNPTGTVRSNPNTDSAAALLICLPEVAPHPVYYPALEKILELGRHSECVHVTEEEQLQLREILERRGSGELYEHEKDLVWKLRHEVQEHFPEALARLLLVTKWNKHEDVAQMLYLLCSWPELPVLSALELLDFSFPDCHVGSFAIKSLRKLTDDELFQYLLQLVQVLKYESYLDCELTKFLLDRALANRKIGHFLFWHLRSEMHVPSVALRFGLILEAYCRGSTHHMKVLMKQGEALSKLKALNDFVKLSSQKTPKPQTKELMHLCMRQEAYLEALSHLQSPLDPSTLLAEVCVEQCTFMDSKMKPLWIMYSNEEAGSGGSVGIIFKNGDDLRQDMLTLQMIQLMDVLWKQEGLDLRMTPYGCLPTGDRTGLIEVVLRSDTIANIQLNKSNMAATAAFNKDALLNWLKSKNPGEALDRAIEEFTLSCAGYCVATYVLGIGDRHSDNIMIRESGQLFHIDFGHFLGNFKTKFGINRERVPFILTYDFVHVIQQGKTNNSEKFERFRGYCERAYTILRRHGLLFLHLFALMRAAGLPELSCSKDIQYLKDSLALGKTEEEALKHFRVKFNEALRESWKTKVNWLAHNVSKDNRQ
Chain of PI3Kδ (P27986 whole entry partner): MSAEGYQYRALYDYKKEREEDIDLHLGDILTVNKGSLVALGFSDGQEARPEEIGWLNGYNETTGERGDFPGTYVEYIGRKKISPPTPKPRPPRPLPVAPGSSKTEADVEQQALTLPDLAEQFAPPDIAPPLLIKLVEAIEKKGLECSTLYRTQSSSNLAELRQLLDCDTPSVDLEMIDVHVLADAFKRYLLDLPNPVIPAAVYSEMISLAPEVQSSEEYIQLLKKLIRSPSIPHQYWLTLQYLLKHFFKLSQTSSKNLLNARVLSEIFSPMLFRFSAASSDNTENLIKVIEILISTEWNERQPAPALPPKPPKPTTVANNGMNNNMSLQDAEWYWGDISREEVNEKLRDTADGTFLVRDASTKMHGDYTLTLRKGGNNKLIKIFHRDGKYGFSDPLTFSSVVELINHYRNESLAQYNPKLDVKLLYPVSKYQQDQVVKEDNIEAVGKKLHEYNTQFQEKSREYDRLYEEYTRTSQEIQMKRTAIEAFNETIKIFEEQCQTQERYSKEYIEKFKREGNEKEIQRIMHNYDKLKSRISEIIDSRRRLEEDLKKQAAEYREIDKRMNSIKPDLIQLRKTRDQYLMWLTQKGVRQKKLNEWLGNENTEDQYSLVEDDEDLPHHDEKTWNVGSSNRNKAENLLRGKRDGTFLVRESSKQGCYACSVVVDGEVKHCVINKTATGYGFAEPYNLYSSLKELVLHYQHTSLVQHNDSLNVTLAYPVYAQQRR
2) A kinase/lipid substrate mixed solution and a kinase reaction buffer/lipid substrate mixed solution were prepared; the kinase/lipid substrate mixed solution was added into columns 3-24 of the assay plate, 3 μL per well; the kinase reaction buffer/lipid substrate mixed solution was added into columns 1-2 of the assay plat, 3 μL per well; and the plate was centrifuged at a speed of 1000 rpm for 10 sec.
3) An ATP solution was prepared, and added into the assay plate, 2 μL per well; the plate was centrifuged at a speed of 1000 rpm for 10 sec, shaken and mixed in 2nd gear mode on a plate shaker for 1 min, further centrifuged at a speed of 1000 rpm for 10 sec, and incubated for 120 min at 23° C. […]
5) A kinase detection reagent was prepared, added into the assay plate, 10 μL per well; the plate was centrifuged at a speed of 1000 rpm for 10 sec, shaken and mixed in 2nd gear mode on a plate shaker for 1 min, further centrifuged at a speed of 1000 rpm for 10 sec, incubated for 30 min at 23° C.; and then read on the multi-marker detector Envision.
IC50 results were analyzed by XLfit5 (Formula 205) of IDBS company.

Experiment [3] concerns the target T1, PI3K (p110α) (Homo sapiens, UniProt P42336).
T1 construct: purchased Millipore 14-602-K
Nature of the experiment: ADP-Glo Assay I, in vitro enzyme activity. In kind it is biochemical. The settings on record: 0.33 nM PI3Kalpha. As to the method: The test compounds were diluted with a three-fold concentration gradient, and 10 concentrations (10000 nM to 0.5 nM) were obtained in total.
50 nL of the test compounds of the present invention was transferred to a reaction plate (PerkinElmer #6007299), and added with 3 μL of an enzyme/substrate mixture (0.33 nM PI3Kalpha, Millipore #14-602-K/166.5 μM PIP2); after incubation for 20 min, 2 μL of an ATP solution (100 μM) was added to initiate the reaction; after 2 hours of reaction at room temperature, the kinase reaction was stopped by adding 5 μL ADP-Glo reagent, followed by incubation at room temperature for 60 min, allowing the remaining unreacted ATP to be completely digested; and the resulting solution was added with 10 μL of a kinase detection reagent and incubated at room temperature for 40 min, and then the […] was read on Envision. PIP2, ATP, the ADP-Glo reagent, and the kinase assay reagents are all from an ADP-Glo Kinase Assay Kit (Promega #V1792).
IC50 was calculated using the standard 4-parameter fitting method (Model 205, XL-fit, iDBS).

Bounds are passed on as bounds.

T1 sequence (P42336 whole entry): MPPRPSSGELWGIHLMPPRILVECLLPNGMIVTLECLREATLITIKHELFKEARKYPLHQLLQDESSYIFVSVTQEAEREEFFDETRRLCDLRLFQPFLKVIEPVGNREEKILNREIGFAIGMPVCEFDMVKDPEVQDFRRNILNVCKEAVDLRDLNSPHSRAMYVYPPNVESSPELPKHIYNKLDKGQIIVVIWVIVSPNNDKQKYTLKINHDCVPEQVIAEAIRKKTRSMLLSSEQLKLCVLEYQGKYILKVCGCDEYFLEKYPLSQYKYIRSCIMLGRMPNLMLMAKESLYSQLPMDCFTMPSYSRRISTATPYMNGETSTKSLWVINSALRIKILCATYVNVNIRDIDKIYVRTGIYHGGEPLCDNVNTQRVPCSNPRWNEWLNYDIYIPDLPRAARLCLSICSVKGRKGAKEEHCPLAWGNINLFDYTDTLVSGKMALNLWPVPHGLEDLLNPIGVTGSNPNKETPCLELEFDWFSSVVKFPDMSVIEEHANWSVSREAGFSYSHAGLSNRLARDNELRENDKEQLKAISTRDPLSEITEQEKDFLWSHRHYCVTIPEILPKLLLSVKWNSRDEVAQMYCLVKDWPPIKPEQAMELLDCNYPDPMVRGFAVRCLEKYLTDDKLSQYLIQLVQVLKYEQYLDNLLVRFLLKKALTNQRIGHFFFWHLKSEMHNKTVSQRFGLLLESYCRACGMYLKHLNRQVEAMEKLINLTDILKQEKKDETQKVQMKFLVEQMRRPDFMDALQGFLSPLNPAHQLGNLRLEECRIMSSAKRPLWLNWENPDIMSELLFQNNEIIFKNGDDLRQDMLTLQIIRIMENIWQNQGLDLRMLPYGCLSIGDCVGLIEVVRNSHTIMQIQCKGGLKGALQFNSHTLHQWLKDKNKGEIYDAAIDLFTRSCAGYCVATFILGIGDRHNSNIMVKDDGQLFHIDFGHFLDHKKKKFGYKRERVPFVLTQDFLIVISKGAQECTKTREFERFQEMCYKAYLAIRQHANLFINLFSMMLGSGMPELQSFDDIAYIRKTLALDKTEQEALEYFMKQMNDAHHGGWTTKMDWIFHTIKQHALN
T1 sequence (P27986 whole entry partner): as the sequence (P27986 whole entry partner) above

For the compound `COc1ncc(-c2ccc3ncc(OCCN(C)C)c(=O)n3c2)cc1NS(=O)(=O)c1ccc(F)cc1Cl` [Compound 1], the IC50 was not above 50 nM in experiment [1], 0.5 ± 0.1 nM in experiment [2] and not above 1 nM in experiment [3].
